The values below come from patent US5472951A, “Stabilizer for phospholipid vesicles” (Chiba Flour Milling Co., Ltd., priority 1992, dated 1995).

Assay type in all cases: physicochemical
The nature of data set [1]: aggregation on addition of dextran: turbidity at 800 nm. Here is the method:
The precipitation of the vesicles was dispersed again to be 5 wt %, and thereto dextran (molecular weight of 40000) was added as a colloid osmotic pressure controller. The stability of the dispersion was observed by determination of turbidity at 800 nm.
The stability of the MPDSPE-modified vesicle was evaluated by adding, to the above dispersion, dextran (molecular weight: 4000) which is a colloid osmotic pressure controller, and measuring the turbidity from the absorbance at 800 nm. […] This proves the aggregation inhibition effect of the MPDSPE of the vesicle stabilizer of the present invention.
The resulting dispersion was treated with a microfluidizer at 2500 psi at 4° C. for 15 minutes to obtain a dispersion of SDSPE-modified vesicles having average particle diameter of 350±95 nm. This dispersion was centrifuged (100000 G, 30 minutes) to obtain a precipitate of vesicles. The precipitate was dispersed again into a solution to be 5% by weight. Occurrence of aggregation of the vesicles was tested by adding dextran (molecular weight 40000) to the dispersion and measuring the turbidity change at 800 nm. […] Therefrom the modification was confirmed to be effective to inhibition of aggregation caused by dextran.
5.0 g of a powdery lipid mixture containing the above STEC (DPPC:cholesterol:stearic acid:STEC=7:7:2:2 in molar ratio) was dispersed in 100 ml of saline, and the dispersion was stirred at 4° C. for 24 hours. The resulting dispersion was treated with a microfluidizer at 2500 psi at 4° C. for 15 minutes. This dispersion was centrifuged (10000 G, 30 minutes) to obtain precipitate of STEC-modified vesicles. The precipitate was dispersed again in to saline to be 5 wt %. The stability of the vesicles was evaluated by adding 2.5 wt % solution of dextran (molecular weight 40000) to the above vesicle layer and measuring the turbidity change at 800 nm. The STEC-modified vesicles caused the turbidity increase of 58% of that of the unmodified vesicles (DPPC:cholesterol:stearic acid=7:7:2 in molar ratio), thereby the inhibition effect of STEC, a vesicle stabilizer of the present invention being confirmed.

Data set [2] in a line: particle diameter of modified vesicles. The following applies: mixed lipid vesicles, microfluidizer.
The nature of data set [3]: introduction ratio into mixed lipid vesicles. The note with it: dimyristoyl phosphatidylcholine:cholesterol:myristic acid:LPMS 7:7:2:0.3. Here is the method:
The ratio of introduction of the stabilizer into the vesicles is determined by treating the dispersion of the vesicles by gel filtration or ultracentrifuge to remove the superfluous stabilizer which has not been introduced into the vesicles, and quantitatively determining saccharide in respective fractions by a phenol-sulfuric acid method. The stabilizer of the present invention, when employed in an amount of from 2 to 10 mol %, is introduced into the vesicles in a ratio of 90% or more.
The effect of the LPMS of the present invention on stabilization of vesicles was evaluated as follows. A powdery lipid mixture containing LPMS was prepared from dimyristoyl phosphatidylcholine, cholesterol, myristic acid, and LPMS (in molar ratio of 7:7:2:0.3) was prepared by freeze-drying. 100 ml of saline was added to 10 g of the above powdery lipid mixture, and the mixture was stirred at 4° C. for 24 hours to prepare a liquid dispersion. […] The introduction ratio of the LPMS was 85% according to saccharide determination of the supernatant liquid after centrifugation.
500 mg of a powdery lipid mixture containing MPDSG of the present invention was prepared from DPPC, cholesterol, distearyl phosphatidic acid, and MPDSG (in molar ratio of 10:9:0.9:0.5) was prepared by freeze-drying from benzene. […]

Data set [4] in a line: introduction ratio of ODM into DODPC vesicles. Here is the method:
Polymerizable 2,4-octadecadienyl-0-α(β)-maltose (hereinafter referred to as "ODM") was prepared from maltose and 2,4-octadecadienol according to the method shown in Example 11. A solution of 2.0 mg of this ODM in 1 ml of chloroform was mixed with a solution of 200 mg of di(2,4-octadecadienoyl)phosphatidylcholine (hereinafter referred to as "DODPC") as a polymerizable lipid in 5 ml of chloroform. The mixture was evaporated by a rotary evaporator to form a thin film on a wall of an eggplant-shape flask. 20 ml of pure water was added thereto, and agitated with glass beads by a vortex mixer. The resulting ODM-modified vesicle dispersion was treated by an extruder to prepare a dispersion of nearly uniform particle diameters. The vesicle dispersion was irradiated with γ-ray to copolymerize the ODM and the polymerizable lipid, DODPC. A portion of the irradiated dispersion was diluted fivefold with pure water and was left standing at 4° C. for 24 hours. The introduction ratio of ODM was measured by centrifuging the diluted and undiluted dispersions (300000 G, 60 minutes) respectively and determining the ODM in the supernatant by a phenol-sulfuric acid method.

A short description of data set [5]: turbidity increase of copolymerized vesicle dispersion, 4 °C for 24 hours. The following applies: before fivefold dilution.

Regarding `CCCCCCCCCCCCCCCCCC(=O)OCC(COP(=O)(O)OCCNC(=O)[C@H](O)[C@@H](O)[C@H](O[C@H]1O[C@H](CO)[C@@H](O[C@H]2O[C@H](CO)[C@@H](O[C@H]3O[C@H](CO)[C@@H](O[C@H]4O[C@H](CO)[C@@H](O)[C@H](O)[C@H]4O)[C@H](O)[C@H]3O)[C@H](O)[C@H]2O)[C@H](O)[C@H]1O)[C@H](O)CO)OC(=O)CCCCCCCCCCCCCCCCC` (stereo partly drawn) [MPDSPE, Maltopentaose distearoyl phosphatidyl ethanolamide], in data set [1], the “turbidity change on addition of dextran (in words)” value (“turbidity change on addition” for short) is given as “did not show turbidity rise”. Further, in data set [2], the average diameter is on record as 320±115 nm.
In the case of `CC(C)CCC[C@@H](C)[C@H]1CC[C@H]2[C@@H]3CC=C4C[C@@H](OCCOCCOCCOCCOC5O[C@H](CO)[C@@H](O[C@@H]6O[C@H](CO)[C@@H](O)[C@H](O)[C@H]6O)[C@H](O)[C@H]5O)CC[C@]4(C)[C@H]3CC[C@]12C` (stereo partly drawn) [STEC, cellobiosyl tetraethyleneglycosyl cholesterol], the “turbidity increase on dextran addition relative to unmodified vesicles” value in data set [1] (2.5 wt % dextran (MW 40000), DPPC:cholesterol:stearic acid:STEC 7:7:2:2) is reported as 58%.
With `CCCCCCCCCCCCCCCCCC(=O)OCC(COP(=O)(O)OCCNC(=O)[C@H](O)[C@@H](O)[C@H](O[C@@H]1O[C@H](CO)[C@@H](O)[C@H](O)[C@H]1O)[C@H](O)CO)OC(=O)CCCCCCCCCCCCCCCCC` (stereo partly drawn) [SDSPE, cellobiose distearoylphosphatidyl ethanolamine], the “turbidity change on addition” value in data set [1] is given as “little rise of turbidity”. This compound also gave an average diameter in data set [2] of 350±95 nm.
`CCCCCCCCCCCCCCCCCCOC1O[C@H](CO)[C@@H](O)[C@H](O[C@@H]2O[C@H](CO)[C@@H](O)[C@H](O[C@@H]3O[C@H](CO)[C@@H](O)[C@H](O[C@@H]4O[C@H](CO)[C@@H](O)[C@H](O[C@@H]5O[C@H](CO)[C@@H](O)[C@H](O)[C@H]5O)[C@H]4O)[C@H]3O)[C@H]2O)[C@H]1O` (stereo partly drawn) [LPMS, laminaripentaose monostearyl ether]: the “turbidity change on addition” value in data set [1] was “did not give turbidity increase”. The introduction ratio in data set [3] is listed as 85%. The average diameter in data set [2] is on record as 300±130 nm.
Regarding `CCCCCCCCCCCCCC=CC=CCOC1O[C@H](CO)[C@@H](O[C@H]2O[C@H](CO)[C@@H](O)[C@H](O)[C@H]2O)[C@H](O)[C@H]1O` (stereo partly drawn) [ODM, 2,4-octadecadienyl-0-α(β)-maltose], the “introduction ratio of ODM” value in data set [4] (copolymerized by γ-ray, both diluted (fivefold) and undiluted dispersions) was found to be 94.2%; in data set [4] (not copolymerized, after fivefold dilution) it was 66.9%; in data set [4] (not copolymerized, before fivefold dilution) it was 93.8%. The “turbidity increase relative to unmodified vesicles” value in data set [5] turned out to be 10.9%.
